Source: patent US10287272B2, “Substituted indazole compounds as RORgammaT inhibitors and uses thereof” (Merck Sharp & Dohme Corp., priority 2015, dated 2019)
pEC50, pIC50: −log10 of the molar value.

How the values were obtained:
CAR = CAR (Homo sapiens (Human), UniProt Q14994); experiment: Nuclear hormone receptor selectivity assay (GAL4-NHR-LBD luciferase, HEK293); format: cell-based
Method: (§1) In the assay system used, an activated GAL4-nuclear hormone receptor (NHR) fusion construct binds to an upstream activation sequence (UAS) and drives a luciferase reporter gene. […]
(§2) HEK293 cells were transfected with GAL4-NHR-LBD construct (pcDNA3.1neo) and the pGL4.31 GAL4-luciferase reporter construct (Promega) and incubated overnight at 37° C. and 5% CO2. After 16-24 hours, cells were harvested and plated at 20 μL (10,000 cells)/well in tissue-culture treated 384 well plate. […] Next, plates are spun briefly and incubated overnight at 37° C. and 5% CO2. […] In agonist mode, test compound was incubated directly with the cells. For receptors that are not constitutively active, a known agonist is also tested as a positive control.
(§3) After 16-24 hours, luciferase activity was measured. Plates and luciferase reagent (e.g. One-Glo® or Dual Glo®; Promega, Madison, Wis.) were brought to room temperature. Next, a 25 μL aliquot of luciferase reagent was added to each well. Plates were spun down briefly and incubated at room temperature for 10 minutes. The luciferase signal was measured on an Envision plate reader (Perkin Elmer) set to the ultra-sensitive luminescence setting.

FXR = FXR (Homo sapiens (Human), UniProt Q96RI1); experiment: as above; format: cell-based
Method: as §1, §2, §3

LXRα = LXRα (Homo sapiens (Human), UniProt Q13133); experiment: as above; format: cell-based
Method: as §1, §2, §3

LXRβ = LXRβ (Homo sapiens (Human), UniProt P55055); experiment: as above; format: cell-based
Method: as §1, §2, §3

PPARα = PPARα (Homo sapiens (Human), UniProt Q07869); experiment: as above; format: cell-based
Method: as §1, §2, §3

PPARβ = PPARβ (Homo sapiens (Human), UniProt Q03181); experiment: as above; format: cell-based
Method: as §1, §2, §3

PPARγ = PPARγ (Homo sapiens (Human), UniProt P37231); experiment: as above; format: cell-based
Method: as §1, §2, §3

PXR = PXR (Homo sapiens (Human), UniProt O75469); experiment: as above; format: cell-based; details: agonist mode
Method: as §1, §2, §3

RARα = RARα (Homo sapiens (Human), UniProt P10276); experiment: as above; format: cell-based
Method: as §1, §2, §3

RARβ = RARβ (Homo sapiens (Human), UniProt P10826); experiment: as above; format: cell-based
Method: as §1, §2, §3

RARγ = RARγ (Homo sapiens (Human), UniProt P13631); experiment: as above; format: cell-based
Method: as §1, §2, §3

RORα = RORα (Homo sapiens (Human), UniProt P35398); experiment: as above; format: cell-based; details: antagonist mode
Method: as §1, §2, §3

RORβ = RORβ (Homo sapiens (Human), UniProt Q92753); experiment: as above; format: cell-based; details: antagonist mode
Method: as §1, §2, §3

RXRα = RXRα (Homo sapiens (Human), UniProt P19793); experiment: as above; format: cell-based
Method: as §1, §2, §3

TRα = TRα (Homo sapiens (Human), UniProt P10827); experiment: as above; format: cell-based
Method: as §1, §2, §3

TRβ = TRβ (Homo sapiens (Human), UniProt P10828); experiment: as above; format: cell-based
Method: as §1, §2, §3

VDR = VDR (Homo sapiens (Human), UniProt P11473); experiment: as above; format: cell-based
Method: as §1, §2, §3

[1] = test system: BclxL gene expression in murine thymus; experiment: Murine thymic BclxL gene expression assay; format: in vivo, mouse; details: female C57BL/6 mice, oral 0.1-30 mg/kg, thymus collected 2 hours after dosing, qPCR; FIG. 3
Method: Animals were euthanized with carbon dioxide (CO2) at 2 hours after dosing, and thymi were collected and immediately placed on ice before processing.
Thymus tissue samples were mashed with syringe plungers in a 48-well, flat-bottom tissue culture plate. Cells were suspended in 1 mL phosphate buffered saline (PBS), and passed through a Falcon 70 μM cell strainer into 50-mL centrifuge tubes. A 200 μL aliquot of cells from each sample were transferred into a 96-well, round-bottom plate. The plate was centrifuged at 1200 rpm and 4° C., flicked to remove supernatant, and the cell pellets were frozen at −80° C. until further processing.
Initial further processing consisted of ribonucleic acid (RNA) isolation and complementary deoxyribonucleic acid (cDNA) synthesis.

[2] = test system: murine collagen-induced arthritis model; experiment: Murine collagen-induced arthritis model; format: in vivo, mouse; details: female DBA/1J mice, oral 3, 10 or 30 mg/kg twice daily; FIG. 4
Method: Female DBA/1J mice (Jackson Laboratories, 7-8 weeks old) were received and allowed to acclimate for about one week. On the day of immunization, an emulsion was freshly prepared by homogenizing equal volumes of Complete Freund's Adjuvant (CFA, Chondrex #7001) and a collagen type-2 solution (bovine source, Chondrex #20022) using a tissue homogenizer, on ice. A volume of 0.1 mL of this emulsion was injected subcutaneously into the base of the tail of each mouse, which was lightly anesthetized with isoflurane. Mice recovered from anesthesia were allowed food and water ad libitum.
Eighteen days after immunization, the mice were injected intraperitoneally with 40 μg of lipopolysaccaride (LPS, Sigma#L4005) in 0.2 mL saline, in order to help synchronize the disease progression in all animals. Seven days after LPS injection, the mice were assessed for knee joint swelling by measurement of each knee joint using digital calipers and computing total joint circumference. The total knee joint circumference of the 4 knee joints was then used to randomize mice into treatment groups of equal average circumference.
This dosing continued twice daily at 8- and 16-hour intervals for the duration of the study. As a positive control, one group of mice received 25 mg/kg Jak inhibitor (JAKi) tofacitinib once per day. Joints were measured 2-3 times per week.

[3] = antagonist mode, reference agonist at EC80

Chain of RARβ (P10826 183-417, species assumed): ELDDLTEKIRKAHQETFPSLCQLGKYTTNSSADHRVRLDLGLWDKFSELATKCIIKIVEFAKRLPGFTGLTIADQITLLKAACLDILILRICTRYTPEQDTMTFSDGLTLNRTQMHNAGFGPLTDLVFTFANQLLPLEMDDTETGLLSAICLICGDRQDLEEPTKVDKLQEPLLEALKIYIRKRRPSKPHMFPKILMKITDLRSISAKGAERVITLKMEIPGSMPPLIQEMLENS
Chain of FXR (Q96RI1 262-486, species assumed): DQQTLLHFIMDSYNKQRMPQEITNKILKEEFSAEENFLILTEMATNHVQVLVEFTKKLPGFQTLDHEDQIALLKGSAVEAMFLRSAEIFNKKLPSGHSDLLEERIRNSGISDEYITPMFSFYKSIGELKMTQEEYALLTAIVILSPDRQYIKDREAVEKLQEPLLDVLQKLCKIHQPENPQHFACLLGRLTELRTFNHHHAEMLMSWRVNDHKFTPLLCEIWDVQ
Chain of LXRβ (P55055 222-460): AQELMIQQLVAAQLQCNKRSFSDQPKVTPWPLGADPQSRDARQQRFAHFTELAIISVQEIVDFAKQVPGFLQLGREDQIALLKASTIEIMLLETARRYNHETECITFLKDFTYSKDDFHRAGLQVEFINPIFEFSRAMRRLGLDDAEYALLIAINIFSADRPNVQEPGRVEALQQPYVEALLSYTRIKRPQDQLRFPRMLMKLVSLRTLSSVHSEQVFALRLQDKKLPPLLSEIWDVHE
Chain of PPARα (Q07869 239-466, species assumed): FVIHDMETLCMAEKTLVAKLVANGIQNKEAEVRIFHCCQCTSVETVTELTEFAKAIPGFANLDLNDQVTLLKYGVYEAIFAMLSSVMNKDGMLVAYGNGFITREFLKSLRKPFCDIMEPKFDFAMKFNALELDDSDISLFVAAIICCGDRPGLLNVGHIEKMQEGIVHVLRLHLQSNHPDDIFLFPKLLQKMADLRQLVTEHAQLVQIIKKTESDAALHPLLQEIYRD
Chain of TRβ (P10828 217-461): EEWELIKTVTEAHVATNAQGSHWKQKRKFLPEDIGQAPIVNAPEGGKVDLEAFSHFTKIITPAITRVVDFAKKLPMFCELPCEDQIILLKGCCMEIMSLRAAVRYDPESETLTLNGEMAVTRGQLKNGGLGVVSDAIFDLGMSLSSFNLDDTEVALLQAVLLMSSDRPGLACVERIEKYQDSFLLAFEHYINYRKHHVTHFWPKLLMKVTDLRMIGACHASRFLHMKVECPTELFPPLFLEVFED
Chain of RARγ (P13631 185-419, species assumed): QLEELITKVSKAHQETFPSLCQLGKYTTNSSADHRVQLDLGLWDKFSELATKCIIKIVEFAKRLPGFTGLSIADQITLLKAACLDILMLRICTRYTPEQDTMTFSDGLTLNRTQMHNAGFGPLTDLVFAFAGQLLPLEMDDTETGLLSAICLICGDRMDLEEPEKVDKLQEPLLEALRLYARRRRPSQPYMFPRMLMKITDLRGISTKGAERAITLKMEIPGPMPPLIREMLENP
Chain of PPARβ (Q03181 211-439, species assumed): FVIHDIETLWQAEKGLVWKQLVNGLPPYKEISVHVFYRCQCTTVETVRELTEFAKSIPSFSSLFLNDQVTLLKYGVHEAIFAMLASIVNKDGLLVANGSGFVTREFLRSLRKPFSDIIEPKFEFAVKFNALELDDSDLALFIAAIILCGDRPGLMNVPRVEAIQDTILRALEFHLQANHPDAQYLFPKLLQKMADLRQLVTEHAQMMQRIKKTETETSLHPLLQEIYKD
Chain of RXRα (P19793 227-458): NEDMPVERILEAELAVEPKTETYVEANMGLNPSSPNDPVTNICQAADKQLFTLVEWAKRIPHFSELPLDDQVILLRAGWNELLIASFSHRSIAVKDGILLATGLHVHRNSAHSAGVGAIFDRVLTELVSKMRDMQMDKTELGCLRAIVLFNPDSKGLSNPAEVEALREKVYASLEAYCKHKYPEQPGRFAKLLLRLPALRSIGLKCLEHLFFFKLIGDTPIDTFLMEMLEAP
Chain of LXRα (Q13133 209-447): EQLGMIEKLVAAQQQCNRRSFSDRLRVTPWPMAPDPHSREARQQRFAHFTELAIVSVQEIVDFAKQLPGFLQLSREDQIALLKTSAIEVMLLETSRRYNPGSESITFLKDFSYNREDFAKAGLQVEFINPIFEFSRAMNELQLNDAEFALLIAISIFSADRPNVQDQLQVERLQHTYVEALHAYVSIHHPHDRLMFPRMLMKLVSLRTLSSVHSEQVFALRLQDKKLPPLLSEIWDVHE
Chain of TRα (P10827 other isoform, or with tags, fused parts or gaps isoform P10827-2): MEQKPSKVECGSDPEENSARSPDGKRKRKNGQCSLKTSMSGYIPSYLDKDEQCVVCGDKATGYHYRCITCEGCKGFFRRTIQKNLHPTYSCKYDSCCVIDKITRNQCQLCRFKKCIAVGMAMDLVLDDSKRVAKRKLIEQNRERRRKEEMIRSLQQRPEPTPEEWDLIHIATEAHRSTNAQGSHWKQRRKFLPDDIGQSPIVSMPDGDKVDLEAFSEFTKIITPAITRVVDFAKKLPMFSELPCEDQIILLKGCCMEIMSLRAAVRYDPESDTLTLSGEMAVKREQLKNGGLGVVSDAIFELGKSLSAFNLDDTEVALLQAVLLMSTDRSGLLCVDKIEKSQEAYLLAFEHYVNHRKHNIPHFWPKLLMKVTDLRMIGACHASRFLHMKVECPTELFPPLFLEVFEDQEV
Chain of RARα (P10276 183-417, species assumed): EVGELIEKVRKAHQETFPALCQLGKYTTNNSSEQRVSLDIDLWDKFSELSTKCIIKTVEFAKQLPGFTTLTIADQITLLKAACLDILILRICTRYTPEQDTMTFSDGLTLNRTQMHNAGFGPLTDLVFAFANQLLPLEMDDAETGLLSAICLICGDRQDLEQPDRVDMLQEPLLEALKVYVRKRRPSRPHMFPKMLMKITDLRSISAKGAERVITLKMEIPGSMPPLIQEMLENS
Chain of VDR (P11473 127-423, species assumed): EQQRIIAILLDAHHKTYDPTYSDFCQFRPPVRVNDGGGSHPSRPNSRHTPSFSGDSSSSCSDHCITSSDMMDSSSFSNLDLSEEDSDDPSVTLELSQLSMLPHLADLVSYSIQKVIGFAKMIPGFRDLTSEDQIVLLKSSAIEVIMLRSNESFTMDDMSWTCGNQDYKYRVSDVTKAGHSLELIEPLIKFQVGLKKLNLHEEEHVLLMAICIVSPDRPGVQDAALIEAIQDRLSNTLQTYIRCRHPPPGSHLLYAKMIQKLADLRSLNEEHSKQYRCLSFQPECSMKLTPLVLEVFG
Chain of CAR (Q14994 109-352): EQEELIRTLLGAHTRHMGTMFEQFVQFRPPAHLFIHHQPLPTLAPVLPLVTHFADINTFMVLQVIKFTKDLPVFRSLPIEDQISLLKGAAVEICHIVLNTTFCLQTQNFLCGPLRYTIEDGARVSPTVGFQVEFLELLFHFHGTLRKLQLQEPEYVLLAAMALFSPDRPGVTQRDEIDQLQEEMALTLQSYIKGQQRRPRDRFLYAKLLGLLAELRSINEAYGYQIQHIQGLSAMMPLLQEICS
Chain of PPARγ (P37231 238-503, species assumed): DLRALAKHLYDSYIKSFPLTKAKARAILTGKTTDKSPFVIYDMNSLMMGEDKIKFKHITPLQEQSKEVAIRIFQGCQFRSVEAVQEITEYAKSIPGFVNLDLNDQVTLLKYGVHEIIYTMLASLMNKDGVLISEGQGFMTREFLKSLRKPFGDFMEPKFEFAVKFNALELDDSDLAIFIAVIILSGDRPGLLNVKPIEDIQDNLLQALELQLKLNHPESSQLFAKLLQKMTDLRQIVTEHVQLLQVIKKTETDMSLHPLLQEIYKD
Chain of PXR (O75469 146-433, species assumed): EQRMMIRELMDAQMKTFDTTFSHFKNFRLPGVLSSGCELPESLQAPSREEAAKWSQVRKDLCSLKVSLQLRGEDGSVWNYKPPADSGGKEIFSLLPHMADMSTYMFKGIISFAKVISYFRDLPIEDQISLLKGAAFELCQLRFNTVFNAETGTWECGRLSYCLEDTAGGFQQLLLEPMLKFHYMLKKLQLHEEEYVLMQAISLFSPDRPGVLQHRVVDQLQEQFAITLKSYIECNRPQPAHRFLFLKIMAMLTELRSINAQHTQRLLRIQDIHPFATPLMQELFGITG
Chain of RORα (P35398 272-510): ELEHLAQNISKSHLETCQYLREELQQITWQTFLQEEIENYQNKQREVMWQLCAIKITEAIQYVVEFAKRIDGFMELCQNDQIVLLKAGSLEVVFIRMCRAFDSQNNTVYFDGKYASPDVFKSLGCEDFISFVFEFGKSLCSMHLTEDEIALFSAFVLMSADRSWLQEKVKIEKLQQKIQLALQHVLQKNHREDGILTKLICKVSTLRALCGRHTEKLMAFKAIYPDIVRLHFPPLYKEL
Chain of RORβ (Q92753 222-460): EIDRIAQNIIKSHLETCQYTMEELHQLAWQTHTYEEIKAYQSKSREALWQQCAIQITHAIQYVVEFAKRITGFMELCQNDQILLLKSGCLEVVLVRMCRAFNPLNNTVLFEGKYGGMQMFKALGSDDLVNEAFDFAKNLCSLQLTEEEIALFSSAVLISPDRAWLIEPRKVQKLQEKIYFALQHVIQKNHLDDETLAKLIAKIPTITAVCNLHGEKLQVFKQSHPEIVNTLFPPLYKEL

SMILES: O=C(O)[C@@H]1CC=C(c2nn(C(=O)c3c(Cl)cccc3C3(C(F)(F)F)CC3)c3c2CC[C@@H](C(=O)N2CCC4(COC4)C2)C3)CC1 [Test Compound]
- pEC50 (CAR; agonist mode): < 5.00
- pIC50 (CAR; [3]): < 5.00
- pEC50 (FXR; agonist mode): < 5.00
- pIC50 (FXR; [3]): < 5.00
- pEC50 (LXRα; agonist mode): < 5.00
- pIC50 (LXRα; [3]): < 5.00
- pEC50 (LXRβ; agonist mode): < 5.00
- pIC50 (LXRβ; [3]): < 5.00
- pEC50 (PPARα; agonist mode): < 5.00
- pIC50 (PPARα; [3]): < 5.00
- pEC50 (PPARβ; agonist mode): < 5.00
- pIC50 (PPARβ; [3]): < 5.00
- pIC50 (PPARγ; PPARγ, antagonist mode, reference agonist at EC80): < 5.00
- pEC50 (PPARγ; read-out: Agonist Mode EC50): 5.29
- pEC50 (PXR): 5.09
- pEC50 (RARα; agonist mode): < 5.00
- pIC50 (RARα; [3]): < 5.00
- pEC50 (RARβ; agonist mode): < 5.00
- pIC50 (RARβ; [3]): < 5.00
- pEC50 (RARγ; agonist mode): < 5.00
- pIC50 (RARγ; [3]): < 5.00
- pIC50 (RORα): < 5.00
- pIC50 (RORβ): < 5.00
- pEC50 (RXRα; agonist mode): < 5.00
- pIC50 (RXRα; [3]): < 5.00
- pEC50 (TRα; agonist mode): < 5.00
- pIC50 (TRα; [3]): 4.80
- pEC50 (TRβ; agonist mode): < 5.00
- pIC50 (TRβ; [3]): < 5.00
- pEC50 (VDR; agonist mode): < 5.00
- pIC50 (VDR; [3]): < 5.00
- expression of BclxL in murine thymus [1]: dose-dependent decrease in the expression of BclxL in murine thymus
- total joint circumference [2]: dose-dependent decrease in total joint circumference
